The values that follow come from patent US7273880B2, “Selective NPY (Y5) antagonists” (H. Lunbeck A/S, priority 1999, dated 2007).

The structures appear in SMILES notation.

Usually Ki stands for a measure of affinity in units of concentration, obtained from inhibition or displacement.

In experiment [1] the target is T1, human Y5 receptor (hNPY-5) (Homo sapiens, UniProt Q15761).
T1 construct: expressed in transfected cells; host or cells: mouse fibroblast LM(tk-) cells, e.g. L-hY5-7 (ATCC CRL-11995)
T1 sequence (Q15761 1-445): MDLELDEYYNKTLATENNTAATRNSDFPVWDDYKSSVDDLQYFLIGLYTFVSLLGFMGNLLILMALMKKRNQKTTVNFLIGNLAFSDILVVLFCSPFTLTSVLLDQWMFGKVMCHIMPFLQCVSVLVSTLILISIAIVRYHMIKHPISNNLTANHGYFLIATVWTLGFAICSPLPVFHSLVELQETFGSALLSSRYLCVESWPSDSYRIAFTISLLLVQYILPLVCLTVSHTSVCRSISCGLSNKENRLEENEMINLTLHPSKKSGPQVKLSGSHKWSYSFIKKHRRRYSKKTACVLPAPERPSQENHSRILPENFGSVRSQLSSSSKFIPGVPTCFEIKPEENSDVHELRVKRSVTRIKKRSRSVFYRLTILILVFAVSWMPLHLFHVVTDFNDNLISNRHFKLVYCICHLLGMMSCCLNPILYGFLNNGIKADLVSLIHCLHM
The experiment can be described thus: Radioligand binding to membranes, cloned human Y5 receptor. The note with it: cloned human NPY Y5 receptor, radioligand competition binding; Tables 1-3; read-out: Ki, nM hNPY-5. In outline:
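Competition binding on membranes from stably transfected 293 or LM(tk-) cells, with 0.08 nM ¹²⁵I-PYY in pH 7.4 HEPES buffer plus 0.1% BSA, 120 min at 30 °C, filtration and counting. Nonspecific binding defined by 300 nM human NPY, or 100 nM human PP for Y4; nonlinear regression.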
In general terms: Displacement assays read how much labelled ligand stays bound in the presence of the test substance.

The target of experiment [2] is hNPY-1,2,4 (human Y1, Y2, Y4 receptors). Briefly: Radioligand binding to membranes, cloned human Y1, Y2 and Y4 receptors. The note with it: one bound given for all three. On the procedure: Binding of the compounds of the present invention to human Y1, Y2, Y4, and Y5 receptors was evaluated using stably transfected 293 or LM(tk-) cells as described above. Stably transfected cell lines which may be used for binding assays include, for example, for the human Y1 receptor, 293-hY1-5 (deposited Jun. 4, 1996, under ATCC Accession No. CRL-12121), for the human Y2 receptor, 293-hY2-10 (deposited Jan. 27, 1994, under ATCC Accession No. CRL-11537), for the human Y4 receptor, L-hY4-3 (deposited Jan. 11, 1995, under ATCC Accession No. CRL-11779), and for human Y5 receptor, L-hY5-7 (deposited Nov. 15, 1995, under ATCC Accession No. CRL-11995). These cell lines were deposited with the American Type Culture Collection (ATCC), 10801 University Blvd., Manassas, Va. 20110-2209, U.S.A. under the provisions of the Budapest Treaty for the International Recognition of the Deposit of Microorganisms for the Purposes of Patent Procedure.
Membranes were harvested from COS-7 cells 48 hours after transient transfection. Adherent cells were washed twice in ice-cold phosphate buffered saline (138 mM NaCl, 8.1 mM Na2HPO4, 2.5 mM KCl, 1.2 mM KH2PO4, 0.9 mM CaCl2, 0.5 mM MgCl2, pH 7.4) and lysed by sonication in ice-cold sonication buffer (20 mM Tris-HCl, 5 mM EDTA, pH 7.7). Large particles and debris were cleared by low speed centrifugation (200×g, 5 min, 4° C.). Membranes were collected from the supernatant fraction by centrifugation (32,000×g, 18 min, 4° C.), washed with ice-cold hypotonic buffer, and collected again by centrifugation (32,000×g, 18 min, 4° C.). The final membrane pellet was resuspended by sonication into a small volume of ice-cold binding buffer (˜1 ml for every 5 plates: 10 mM NaCl, 20 mM HEPES, 0.22 mM KH2PO4, 1.26 mM CaCl2, 0.81 mM MgSO4, pH 7.4). Protein concentration was measured by the Bradford method (Bradford, 1976) using Bio-Rad Reagent, with bovine serum albumin as a standard. Membranes were held on ice for up to one hour and used fresh, or flash-frozen and stored in liquid nitrogen.
Membranes were prepared similarly from 293, LM(tk-), and NIH-3T3 cells. To prepare membranes from baculovirus infected cells, 2×10^7 Sf21 cells were grown in 150 mm tissue culture dishes and infected with a high-titer stock of hY5BB3. Cells were incubated for 2-4 days at 27° C., no CO2 before harvesting and membrane preparation as described above.
Membrane suspensions were diluted in binding buffer supplemented with 0.1% bovine serum albumin to yield an optimal membrane protein concentration so that ^125I-PYY (or alternative radioligand such as ^125I-NPY, ^125I-PYY3-36, or ^125I-[Leu^31Pro^34]PYY) bound by membranes in the assay was less than 10% of ^125I-PYY (or alternative radioligand) delivered to the sample (100,000 dpm/sample=0.08 nM for competition binding assays). ^125I-PYY (or alternative radioligand) and peptide competitors were also diluted to desired concentrations in supplemented binding buffer. Individual samples were then prepared in 96-well polypropylene microtiter plates by mixing 125I-PYY (25 μL) (or alternative radioligand), competing peptides or supplemented binding buffer (25 μL), and finally, membrane suspensions (200 μL). Samples were incubated in a 30° C. water bath with constant shaking for 120 min. Incubations were terminated by filtration over Whatman GF/C filters (pre-coated with 1% polyethyleneimine and air-dried before use), followed by washing with 5 mL of ice-cold binding buffer. Filter-trapped membranes were impregnated with MeltiLex solid scintillant (Wallac, Turku, Finland) and counted for ^125I in a Wallac Beta-Plate Reader. Alternatively, incubations were carried out in GF/C filter plates (pre-coated with 1% polyethyleneimine and air-dried before use), followed by vacuum filtration and three washes of 300 μL of ice-cold binding buffer. 50 μL of UltimaGold (Packard) scintillant were added and counted for ^125I in a Wallac MicroBeta Trilux. […]

Consider `O=S(=O)(NC[C@H]1CC[C@H](Nc2nc3c(s2)CCCc2ccc(F)cc2-3)CC1)c1cccs1` [Example 30, trans-N2-(4-(2-Thienylsulfonyl)aminomethyl)-cyclohexyl-9-fluoro-5,6-dihydro-4H-benzo[6,7]-cyclohepta[d][1,3]thiazol-2-amine], for which the Ki in experiment [1] is 4.2 nM; in experiment [2], > 10000 nM.
The matching figures for `O=S(=O)(NC[C@H]1CC[C@H](Nc2nc3c(s2)CCCc2ccc(F)cc2-3)CC1)c1ccc(F)c(F)c1` [Example 40, trans-1-Aza-9-fluoro-2-{4-(3,4-difluorophenyl)-sulfonyl-aminomethyl}cyclohexylamino-4,5-dihydro-3-thia-benzo[e]azulene]: 19.5 nM and > 10000 nM.
Turning to `O=S(=O)(NCCCCCNc1nc2c(s1)CCCc1ccc(F)cc1-2)c1ccc(F)c(F)c1` [Example 17, 1-Aza-2-(5-(3,4-difluorophenyl)sulfonylamino)-pentylamino-9-fluoro-4,5-dihydro-3-thia-benzo[e]-azulene], the Ki in experiment [1] was 11 nM; in experiment [2] it was > 10000 nM.
`O=S(=O)(NCCCCNc1nc2c(s1)CCCc1ccc(F)cc1-2)c1ccccc1F` [Example 7, 1-Aza-9-fluoro-2-(4-(2-fluorophenyl)sulfonylamino)-butylamino-4,5-dihydro-3-thia-benzo[e]azulene]: the values for the Ki in experiment [1] and in experiment [2] were 23 nM and > 10000 nM, respectively.
Turning to `CCN(CC)S(=O)(=O)NCCCCNc1nc2c(s1)CCCc1ccc(F)cc1-2` [Example 22, 1-Aza-2-(4-diethylaminosulfonylamino)butylamino-9-fluoro-4,5-dihydro-3-thia-benzo[e]azulene], the inhibitory constant (Ki) is 2.9 nM in experiment [1] and > 10000 nM in experiment [2].
In the same order, the values of `O=S(=O)(N[C@H]1CC[C@H](CNc2nc3c(s2)CCCc2ccc(F)cc2-3)CC1)c1ccccc1F` [Example 42, trans-1-Aza-9-fluoro-2-{4-(2-fluoro)phenylsulfonyl-amino}-cyclohexylmethylamino-4,5-dihydro-3-thia-benzo[e]azulene] are 3.9 nM and > 10000 nM.
In the same order, the values of `CS(=O)(=O)NCCCCNc1nc2c(s1)CCCc1ccc(F)cc1-2` [Example 5, 1-Aza-9-fluoro-4,5-dihydro-2-(4-(methane-sulfonylamino)-butyl)amino-3-thia-benzo[e]azulene] are 19.8 nM and > 10000 nM.
For the compound `Cn1cnc(S(=O)(=O)NC[C@H]2CC[C@H](Nc3nc4c(s3)CCCc3ccc(F)cc3-4)CC2)c1` [Example 32, trans-1-Aza-9-fluoro-4,5-dihydro-2-{4-(1-methylimidazolyl-4-yl)sulfonylaminomethyl}cyclohexyl-amino-3-thia-benzo[e]azulene], the values for the Ki in experiment [1] and in experiment [2] were 2.9 nM and > 10000 nM, respectively.
In the same order, the values of `CS(=O)(=O)NCCCCCNc1nc2c(s1)CCCc1ccc(F)cc1-2` [Example 10, 1-Aza-9-fluoro-4,5-dihydro-2-(5-(methylsulfonyl-amino)-pentyl)amino-3-thia-benzo [e]azulene] are 2.4 nM and > 10000 nM.
The matching figures for `CCN(CC)S(=O)(=O)NCCCCNc1nc2c(s1)CCSc1ccccc1-2` [Example 104, N′-[4-(4,5-Dihydrobenzo[2,3]thiepino[4,5-d][1,3]thiazol-2-ylamino)butyl]-N,N-diethylsulfamide]: 3.2 nM and > 10000 nM.
The matching figures for `CCS(=O)(=O)NCCCCCNc1nc2c(s1)CCCc1ccc(F)cc1-2` [Example 21, 1-Aza-9-fluoro-2-(5-ethylsulfonylamino)pentylamino-4,5-dihydro-3-thia-benzo[e]azulene]: 2.5 nM and > 10000 nM.
With `CCN(CC)S(=O)(=O)NC[C@H]1CC[C@H](Nc2nc3c(s2)CCSc2ccccc2-3)CC1` [Example 102, N′-{[4-(4,5-Dihydrobenzo[2,3]thiepino[4,5-d][1,3]thiazol-2-ylamino)cyclohexyl]methyl}-N,N-diethylsulfamide], the Ki in experiment [1] is 5.2 nM; in experiment [2], > 10000 nM.
With `O=S(=O)(Cc1ccccc1)NCCCCCNc1nc2c(s1)CCCc1ccc(F)cc1-2` [Example 16, 1-Aza-2-(5-benzylsulfonylamino)pentylamino-9-fluoro-4,5-dihydro-3-thia-benzo[e]azulene], the results for the Ki in experiment [1] and in experiment [2] were 4.7 nM and > 10000 nM, respectively.
On to `COc1ccc(S(=O)(=O)NC[C@H]2CC[C@H](Nc3nc4c(s3)CCCc3ccc(F)cc3-4)CC2)cc1` [Example 27, trans-1-Aza-9-fluoro-4,5-dihydro-2-{4-(4-methoxy-phenyl)-sulfonylaminomethyl}cyclohexylamino-3-thia-benzo[e]azulene], for which the Ki was 9.2 nM in experiment [1] and > 10000 nM in experiment [2].
The matching figures for `NS(=O)(=O)NCCCCCNc1nc2c(s1)CCCc1ccc(F)cc1-2` [Example 25, 1-Aza-9-fluoro-4,5-dihydro-2-(5-aminosulfonylamino)-pentylamino-3-thia-benzo[e]azulene]: 2.9 nM and > 10000 nM.
In the same order, the values of `O=S(=O)(NC[C@H]1CC[C@H](Nc2nc3c(s2)CCCc2ccc(F)cc2-3)CC1)c1ccccc1F` [Example 26, trans-1-aza-9-fluoro-2-(4-(2-fluorophenyl)sulfonyl-amino-methyl)cyclohexylamino-4,5-dihydro-3-thia-benzo [e]-azulene] are 13.1 nM and > 10000 nM.
The matching figures for `O=S(=O)(CC(F)(F)F)NCCCCNc1nc2c(s1)CCCc1ccc(F)cc1-2` [Example 39, 1-Aza-9-fluoro-4,5-dihydro-2-(4-(2,2,2-trifluoroethyl)-sulfonylamino)butylamino-3-thia-benzo[e]azulene]: 4.8 nM and > 10000 nM.
On to `COc1ccc(C)cc1S(=O)(=O)NC[C@H]1CC[C@H](Nc2nc3c(s2)CCOc2ccccc2-3)CC1` [Example 48, trans-1-Aza-4,5-dihydro-2-{4-(2-methoxy-5-methyl)phenyl-sulfonylaminomethyl}cyclohexylamino-6-oxa-3-thia-benzo[e]azulene], for which the results for the Ki in experiment [1] and in experiment [2] were 15.1 nM and > 10000 nM, respectively.
